The values below come from patent publication US11261175B2 (priority 2017, dated 2022).

Bounds are passed on as bounds.

Holding throughout (format): cell-based
Assay [1] relates to HCV replicon NK5.1-Gluc (genotype 1b). Briefly: Anti-HCV activity using HCV replicon NK5.1-Gluc (genotype 1b) in Huh 7.5.1 cells, luciferase readout. Particulars: Hepatitis C virus, 72 h; Huh 7.5.1 cells with NK5.1-Gluc replicon, 3 days, Gaussia luciferase; read-out: HCV wt. GT-1b.
Assay [2] deals with JFH5a-Rluc-ad34 virus (HCV GT-2a). In words: Anti-HCV activity using HCVcc (JFH5a-Rluc-ad34 virus) in Huh 7.5.1 cells, Renilla luciferase readout. The following applies: Hepatitis C virus, GT2A, Huh-7.5.1, 72 h, read-out: HCV wt. GT-2a. Put shortly:
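Huh 7.5.1 cells were inoculated with JFH5a-Rluc-ad34, a JFH1-derived virus with adaptive E2/p7 mutations, for 4 h before serially diluted compound was added. Intracellular Renilla luciferase was read after three days and normalized to mock-treated controls.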

Assay [3] concerns HCV replicon S52-Feo (genotype 3a). In words: Anti-HCV activity using HCV replicon S52-Feo (genotype 3a) in Huh 7.5.1 cells, luciferase readout. Particulars: Hepatitis C virus, 72 h; Huh 7.5.1 cells with S52-Feo replicon, 3 days, firefly luciferase; read-out: HCV wt. GT-3a. On the technique in general: A replicon is a self-replicating genome or part of one, used to study replication in cells.

Assay [4] has as its system HCV genotype 1b replicon with NS5A L31V mutation. In words: Transiently transfected assay of genotype 1b resistance mutant RNA L31V. Particulars: Hepatitis C virus, Huh-7.5.1, 72 h, read-out: HCV Mutation L31V. The procedure, abridged: (§1)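 Huh7.5.1 cells were electroporated with in vitro-transcribed, ScaI-linearized replicon RNAs carrying the Daclatasvir-resistance substitutions, then seeded 4 h later into DMEM with serially diluted compound. After 3 days, intracellular luciferase activity was read and normalized to mock-treated cells.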

For assay [5], the system named is HCV genotype 1b replicon with NS5A Y93H mutation. In words: Transiently transfected assay of genotype 1b resistance mutant RNA Y93H. The following applies: Hepatitis C virus, Huh-7.5.1, 72 h, read-out: HCV Mutation Y93H. The procedure, abridged: as §1
In assay [6] the test system is HCV genotype 1b replicon with NS5A L31V+Y93H (double mutant). Briefly: Transiently transfected assay of genotype 1b resistance mutant RNA L31V+Y93H (double mutant). The following applies: Hepatitis C virus, Huh-7.5.1, 72 h, read-out: HCV Mutation L31V + Y93H. The procedure, abridged:
as §1

Turning to `CCC1(CC)c2cc(NC(=O)[C@@H]3CCCN3C(=O)[C@H](NC(=O)OC)c3ccccc3)ccc2-c2ccc(-c3cnc([C@@H]4CCCN4C(=O)[C@@H](NC(=O)OC)C(C)C)[nH]3)cc21` [Example 8, methyl ((S)-1-((S)-2-(5-(9,9-diethyl-7-((S)-1-((R)-2-((methoxycarbonyl)amino)-2-phenylacetyl)pyrrolidine-2-carboxyamido)-9H-fluorene-2-yl)-1H-imidazole-2-yl)pyrrolidine-1-yl)-3-methyl-1-oxobutane-2-yl)carbamate], the EC50 was in the range of 0.001 to 0.01 nM in assay [1]; 0.001 to 0.01 nM in assay [2]; 0.01 to 0.1 nM in assay [3]; 0.01 to 0.1 nM in assay [4]; 0.01 to 0.1 nM in assay [5]; 1 to 100 nM in assay [6].

`CCCCC1(CCCC)c2cc(NC(=O)[C@@H]3C[C@H](O)CN3C(=O)[C@H](NC(=O)OC)c3ccccc3)ccc2-c2ccc(NC(=O)[C@@H]3C[C@H](O)CN3C(=O)[C@H](NC(=O)OC)c3ccccc3)cc21` [Example 35, dimethyl (1R,1′R)-2,2′-((3S,3′S,5S,5′S)-5,5′-(9,9-dibutyl-9H-fluorene-2,7-diyl)bis(azanediyl)bis(oxomethylene)bis(3-hydroxypyrrolidine-5,1-diyl))bis(2-oxo-1-phenylethane-2,1-diyl)dicarbamate]: the EC50 in assay [1] lay within 0.01 to 0.1 nM; in assay [2], 1 to 100 nM; in assay [3] it was 0.01 to 0.1 nM; in assay [4], 0.001 to 0.01 nM; in assay [5] it was 0.1 to 1 nM; in assay [6], 1 to 100 nM.

Regarding `CCCCC1(CCCC)c2cc(NC(=O)[C@@H]3C[C@@H](OC(=O)C(C)C)CN3C(=O)[C@H](NC(=O)OC)c3ccccc3)ccc2-c2ccc(NC(=O)[C@@H]3C[C@@H](OC(=O)C(C)C)CN3C(=O)[C@H](NC(=O)OC)c3ccccc3)cc21` [Example 32, (3R,3′R,5S,5′S,52R)-5,5′-(9,9-dibutyl-9H-fluorene-2,7-diyl)bis(azanediyl)bis(oxomethylene)bis(1-((R)-2-(methoxycarbonylamino)-2-phenylacetyl)pyrrolidine-5,3-diyl) bis(2-methylpropanoate)], the EC50 fell in the range of 0.001 to 0.01 nM in assay [1]; 0.1 to 1 nM in assay [2]; 0.01 to 0.1 nM in assay [3]; 0.01 to 0.1 nM in assay [4]; 0.01 to 0.1 nM in assay [5]; 0.01 to 0.1 nM in assay [6].

With `CCCC1(CCC)c2cc(NC(=O)[C@@H]3CCCN3C(=O)[C@H](NC(=O)OC)c3ccccc3)ccc2-c2ccc(NC(=O)[C@@H]3CCCN3C(=O)[C@H](NC(=O)OC)c3ccccc3)cc21` [Example 1, dimethyl ((1R,1′R)-((2S,2′S)-(((9,9-dipropyl-9H-fluorene-2,7-diyl)bis(azanediyl))bis(carbonyl))bis(pyrrolidine-2,1-diyl))bis(2-oxo-1-phenylethane-2,1-diyl))dicarbamate], the EC50 in assay [1] is 0.01 to 0.1 nM; in assay [2], 1 to 100 nM; in assay [3], 0.1 to 1 nM; in assay [4], 0.1 to 1 nM; in assay [5], 1 to 100 nM; in assay [6] it was above 100 nM.

As to `CCCCC1(CCCC)c2cc(NC(=O)[C@@H]3C[C@@H](O)CN3C(=O)[C@H](NC(=O)OC)c3ccccc3)ccc2-c2ccc(-c3cnc([C@@H]4CCCN4C(=O)[C@@H](NC(=O)OC)C(C)C)[nH]3)cc21` [Example 31, methyl((S)-1-((S)-2-(5-(9,9-dibutyl-7-((2S,4R)-4-hydroxy-1-((R)-2-((methoxycarbonyl)amino)-2-phenylacetyl)pyrrolidine-2-carboxyamido)-9H-fluorene-2-yl)-1H-imidazole-2-yl)pyrrolidine-1-yl)-3-methyl-1-oxobutane-2-yl)carbamate], the EC50 in assay [1] lay in the range of 0.01 to 0.1 nM; in assay [2], 0.1 to 1 nM; in assay [3], 0.1 to 1 nM; in assay [4] it was 0.1 to 1 nM; in assay [5], 0.01 to 0.1 nM; in assay [6], 1 to 100 nM.

In the case of `CCCCC1(CCCC)c2cc(NC(=O)[C@@H]3CCCN3C(=O)[C@H](NC(=O)OC)c3ccccc3)ccc2-c2ccc(-c3cnc([C@@H]4C[C@H](COC)CN4C(=O)[C@@H](NC(=O)OC)C(C)C)[nH]3)cc21` [Example 41, methyl ((S)-1-((2S,4S)-2-(5-(9,9-dibutyl-7-((S)-1-((R)-2-((methoxycarbonyl)amino)-2-phenylacetyl)pyrrolidine-2-carboxyamido)-9H-fluorene-2-yl)-1H-imidazole-2-yl)-4-(methoxymethyl)pyrrolidine-1-yl)-3-methyl-1-oxobutane-2-yl)carbamate], the EC50 is 0.01 to 0.1 nM in assay [1]; 0.01 to 0.1 nM in assay [2]; 0.1 to 1 nM in assay [3]; 0.001 to 0.01 nM in assay [4]; 0.01 to 0.1 nM in assay [5]; 1 to 100 nM in assay [6].

As to `CCCC1(CCC)c2cc(NC(=O)[C@@H]3CC4(CN3C(=O)[C@H](NC(=O)OC)c3ccccc3)OCCO4)ccc2-c2ccc(-c3cnc([C@@H]4CCCN4C(=O)[C@@H](NC(=O)OC)C(C)C)[nH]3)cc21` [Example 27, methyl ((S)-1-((S)-2-(5-(7-((S)-7-((R)-2-((methoxycarbonyl)amino)-2-phenylacetyl)-1,4-dioxa-7-azaspiro[4.4]nonane-8-carboxyamido)-9,9-dipropyl-9H-fluorene-2-yl)-1H-imidazole-2-yl)pyrrolidine-1-yl)-3-methyl-1-oxobutane-2-yl)carbamate], the EC50 was 0.001 to 0.01 nM in assay [1]; 0.01 to 0.1 nM in assay [2]; 0.01 to 0.1 nM in assay [3]; 0.001 to 0.01 nM in assay [4]; 0.001 to 0.01 nM in assay [5]; 1 to 100 nM in assay [6].

As for `CCCCCC1(CCCCC)c2cc(NC(=O)[C@@H]3CCCN3C(=O)[C@H](NC(=O)OC)c3ccccc3)ccc2-c2ccc(NC(=O)[C@@H]3CCCN3C(=O)[C@H](NC(=O)OC)c3ccccc3)cc21` [Example 11, dimethyl ((1R,1′R)-((2S,2′S)-(((9,9-dipentyl-9H-fluorene-2,7-diyl)bis(azanediyl))bis(carbonyl))bis(pyrrolidine-2,1-diyl))bis(2-oxo-1-phenylethane-2,1-diyl))dicarbamate], the EC50 in assay [1] is 0.001 to 0.01 nM; in assay [2], 1 to 100 nM; in assay [3], 0.01 to 0.1 nM; in assay [4], 0.001 to 0.01 nM; in assay [5] it was 1 to 100 nM; in assay [6], 1 to 100 nM.

With `CCCCC1(CCCC)c2cc(NC(=O)[C@@H]3CCCN3C(=O)[C@H](NC(=O)OC)c3ccccc3)ccc2-c2ccc(NC(=O)[C@@H]3CC4(CN3C(=O)[C@H](NC(=O)OC)c3ccccc3)OCCO4)cc21` [Example 16, methyl ((R)-2-((S)-8-((9,9-dibutyl-7-((S)-1-((R)-2-((methoxycarbonyl)amino)-2-phenylacetyl)pyrrolidine-2-carboxyamido)-9H-fluorene-2-yl)carbamoyl)-1,4-dioxa-7-azaspiro[4.4]nonane-7-yl)-2-oxo-1-phenylethyl)carbamate], the EC50 in assay [1] lay in the range of 0.001 to 0.01 nM; in assay [2], 1 to 100 nM; in assay [3], 0.01 to 0.1 nM; in assay [4] it was 0.001 to 0.01 nM; in assay [5], 0.01 to 0.1 nM; in assay [6], 1 to 100 nM.

On to `CCCCC1(CCCC)c2cc(NC(=O)[C@@H]3CCCN3C(=O)[C@H](NC(=O)OC)c3ccccc3)ccc2-c2ccc(NC(=O)[C@@H]3C[C@H](COC)CN3C(=O)[C@H](NC(=O)OC)c3ccccc3)cc21` [Example 37, methyl ((R)-2-((2S,4S)-2-((9,9-dibutyl-7-((S)-1-((R)-2-((methoxycarbonyl)amino)-2-phenylacetyl)pyrrolidine-2-carboxyamido)-9H-fluorene-2-yl)carbamoyl)-4-(methoxymethyl)pyrrolidine-1-yl)-2-oxo-1-phenylethyl)carbamate], for which the EC50 in assay [1] was 0.001 to 0.01 nM; in assay [2] it was 0.1 to 1 nM; in assay [3], 0.001 to 0.01 nM; in assay [4] it was 0.001 to 0.01 nM; in assay [5] it was 0.01 to 0.1 nM; in assay [6], 1 to 100 nM.

Turning to `CCCCC1(CCCC)c2cc(NC(=O)[C@@H]3C[C@H](COC)CN3C(=O)[C@H](NC(=O)OC)c3ccccc3)ccc2-c2ccc(-c3cnc([C@@H]4C[C@H](COC)CN4C(=O)[C@@H](NC(=O)OC)C(C)C)[nH]3)cc21` [Example 40, methyl ((S)-1-((2S,4S)-2-(5-(9,9-dibutyl-7-((2S,4S)-1-((R)-2-((methoxycarbonyl)amino)-2-phenylacetyl)-4-(methoxymethyl)pyrrolidine-2-carboxyamido)-9H-fluorene-2-yl)-1H-imidazole-2-yl)-4-(methoxymethyl)pyrrolidine-1-yl)-3-methyl-1-oxobutane-2-yl)carbamate], the EC50 was in the range of 0.001 to 0.01 nM in assay [1]; 0.01 to 0.1 nM in assay [2]; 0.1 to 1 nM in assay [3]; 0.001 to 0.01 nM in assay [4]; 0.01 to 0.1 nM in assay [5]; 1 to 100 nM in assay [6].
